How the values were obtained:
pancreatic α-amylase = target: T1, pancreatic α-amylase (Sus scrofa, UniProt P00690); experiment: α-amylase enzyme activity inhibition; assay type: biochemical
T1 construct: purchased Sigma
T1 sequence (P00690 16-511): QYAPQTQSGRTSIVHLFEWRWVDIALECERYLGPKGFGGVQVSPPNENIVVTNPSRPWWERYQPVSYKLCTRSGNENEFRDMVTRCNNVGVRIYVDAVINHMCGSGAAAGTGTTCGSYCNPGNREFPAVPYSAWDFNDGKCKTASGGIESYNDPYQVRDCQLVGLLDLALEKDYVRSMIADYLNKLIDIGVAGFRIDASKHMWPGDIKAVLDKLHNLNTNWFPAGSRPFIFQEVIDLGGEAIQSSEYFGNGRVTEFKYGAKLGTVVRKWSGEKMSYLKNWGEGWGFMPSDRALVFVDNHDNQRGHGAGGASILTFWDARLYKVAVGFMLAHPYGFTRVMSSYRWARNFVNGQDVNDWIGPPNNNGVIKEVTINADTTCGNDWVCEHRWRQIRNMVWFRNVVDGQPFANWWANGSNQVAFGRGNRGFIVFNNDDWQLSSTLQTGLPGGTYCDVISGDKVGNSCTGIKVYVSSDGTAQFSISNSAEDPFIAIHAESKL
Description: (§1) As a polysaccharide degrading enzyme, pancreatic α-amylase and α-glucosidase were purchased from Sigma, and the enzyme activity of novel ginsenoside GS #10, which is an example of the present disclosure, isolated from Ginseng seed extract and ginsenosides GS #01-GS #06, which are comparative examples of the present disclosure, was measured. In order to measure α-amylase activity, enzyme solution was prepared by dissolving BSA 0.1 g, 0.01 g/L NaN3, α-amylase 0.2857 g in 50 mL of PBS (phosphate buffered saline), and 5 mM of p-nitrophenyl-α-D-maltopentoglycoside was dissolved in another PBS to make a substrate solution. 0.1 mL of the test substance was added to 0.5 mL of the enzyme solution, and then the initial absorbance was measured at 405 nm. After adding 0.5 mL of the substrate solution and reacting it for 5 minutes, the absorbance was measured again. The change in enzyme activity was measured by the difference in absorbance between the two reactions. The method for measuring α-glucosidase activity is the same as the method for measuring α-amylase activity, and differs only in α-glucosidase and substrate (p-nitrophenyl-α-D-glucopyranoside). As a positive control to observe the inhibition of enzyme activity, acarbose, which is an α-amylase inhibitor and α-glucosidase inhibitor derived from wheat seed sold by Sigma, was used.

α-glucosidase = α-glucosidase enzyme activity inhibition; assay type: biochemical
Description: as §1

3T1-L1 adipocytes [1] = experiment: glucose uptake (glucose transport) in differentiated adipocytes; assay type: cell-based; details: 10 μM, FIG. 13
Description: 3T1-L1 adipocytes (ATCC) were purchased, and 10% bovine calf serum (Hyclone) and 1% penicillin/streptomycin (Sigma) were added to a Dulbecco's Modified Eagle's Medium (Sigma) and cultured in a 5% CO2 culture medium. In order to differentiate preadipocyte cells into adipocytes, a culture plate was filled with cells and cultured for 48 hours. The cells were then replaced in a DMEM medium to which 10% fetal bovine serum (FBS) (Hyclone), 0.5 mM 3-isobutyl-1-methylxanthine (Sigma), 1 μM dexamethasone (Sigma), 5 μg/ml insulin (Sigma), and 1% penicillin/streptomycin were added and cultured for another 48 hours. Thereafter, the cells were further cultured for 14 days while being replaced in a medium containing 10% FBS, 5 μg/ml insulin, and 1% penicillin/streptomycin at two-day intervals to obtain fully differentiated adipocytes. […] As a positive control for measuring glucose uptake in blood, Metformin (Sigma; 10 μM), which is used as a diabetic therapeutic agent, was used, and novel ginsenoside GS #10, which is an example of the present disclosure, isolated from Ginseng seed extract and ginsenosides GS #01-GS #06, which are comparative examples of the present disclosure, were treated with 10 μM each. In addition, both insulin-dependent/independent glucose transport capacity was measured by treating insulin together, which may promote glucose uptake.

[2] = system: HMG-CoA (3-hydroxy-3-methyl-glutaryl-coenzyme A) reductase; experiment: HMG-CoA reductase gene expression in HepG2 (qPCR); assay type: cell-based; details: 24 hours
SREBP1a = SREBP1a gene expression in HepG2 (qPCR); assay type: cell-based; details: 10 μM, 24 hours, FIG. 30
Description: The hepatocyte cell line HepG2 purchased from the International Center for Biological Resources (ATCC) were placed in Dulbecco's Modified Eagle's Medium (Sigma) to which 10% fetal bovine serum (Hyclone) and 1% penicillin/streptomycin (Sigma) were added, and cultured in a 5% CO2 incubator. As a positive control, Simvastatin (Sigma Aldrich; St. Louis, Mo.), which is known as a lipid lowering agent of the HMG-CoA reductase inhibitor family and reduces cholesterol production in the blood, was used. For the experiment, seven types of ginsenoside (GS #01-GS #06, GS #10; 10 μM each) extracted from Ginseng seeds were treated for 24 hours, and the cells were collected. RNA was extracted using Trizol™ reagent (Thermo Fisher Scientific) and cDNA was synthesized using RevertAid™ 1st strand cDNA synthesis kit (Thermo Fisher Scientific). Bio-Rad's CFX96 real-time quantitative PCR (qPCR) instrument was used to observe the expression of HMG-CoA (3-hydroxy-3-methyl-glutaryl-coenzyme A) reductase, a key gene for cholesterol synthesis. In the same way, LDL (low-density lipoprotein) was absorbed into cells, and the expression of LDL receptor (LDLR), which serves to lower blood cholesterol levels, was observed.
LDLR is controlled by the SREBP1a gene. […]

[3] = system: human umbilical vein endothelial cells (HUVEC); experiment: nitric oxide (NO) production in vascular endothelial cells; assay type: cell-based
Excerpt: Since nitric oxide is made by […] nitric oxide synthase (eNOS), in this experiment, it was confirmed whether the novel ginsenoside GS #10 of the example of the present disclosure can promote the production of nitric oxide through eNOS activity control in vascular endothelial cells. Specifically, the human umbilical vein endothelial cells (HUVEC) were purchased from the International Center for Biological Resources (ATCC) and cultured, and then the amount of nitric oxide (NO) produced by treating the novel ginsenoside GS #10 at a concentration of 1 to 10 μg/ml was measured.

3T1-L1 adipocytes [4] = experiment: glucose uptake (glucose transport) in differentiated adipocytes; assay type: cell-based; details: 1, 10 μM; compared with ginsenosides Rg1, Rg3, Rb1; FIG. 16

CC1(C)C(=O)CC[C@@]2(C)C1[C@@H](O[C@H]1OC(CO)[C@H](O)C(O)C1O[C@H]1OC(CO)[C@H](O)C(O)C1O)C[C@]1(C)C2C[C@@H](O)C2C([C@]3(C)CC[C@H](C(C)(C)O)O3)CC[C@]21C (stereo partly drawn) [GS #10, (20S,24R)-6-O-β-D-glucopyranosyl(1→2)-β-D-glucopyranoside-dammar-3-one-20,24-epoxy-6a,12b,25-triol]
α-amylase activity inhibitory effect (pancreatic α-amylase; 1, 10 μM, compared with ginsenosides Rg1, Rg3, Rb1, FIG. 14): much superior | α-amylase activity inhibitory effect (pancreatic α-amylase; Test Example 1, FIG. 11, ginseng seed ginsenosides compared): most excellent α-amylase activity inhibitory effect | α-glucosidase activity inhibitory effect (α-glucosidase; 1, 10 μM, compared with ginsenosides Rg1, Rg3, Rb1, FIG. 15): much superior | α-glucosidase activity inhibitory effect (α-glucosidase; Test Example 1, FIG. 12, ginseng seed ginsenosides compared): high inhibitory effect on α-glucosidase activity | glucose transport promotion (3T1-L1 adipocytes [1]; combined with insulin (+insulin)): the glucose transport is further increased as compared with the insulin-only treatment group | glucose transport promotion (3T1-L1 adipocytes [1]; material-only treatment (−insulin)): statistically significant glucose transport promotion | expression of HMG-CoA reductase ([2]; 10 μM, HepG2, FIG. 28): most excellent efficacy of inhibiting the expression | inhibition of cholesterol synthesis (HMG-CoA reductase expression) ([2]; 1 and 10 μM, compared with Rg1, Rg3, Rb1, FIG. 31): most effective in inhibiting cholesterol synthesis | expression of SREBP1a (SREBP1a): did not inhibit the expression of SREBP1a but rather tended to increase the expression thereof | NO production efficacy relative to ginsenoside Re (GS #03) ([3]; 10 μg/ml, HUVEC, FIG. 43): ≥ 2 times | NO production-increasing effect ([3]; 10 μg/ml, HUVEC, compared with GS #01 to GS #06, FIG. 43): significantly greater NO production-increasing effect | increased production of nitric oxide (NO) ([3]; 10 μg/ml, compared with Rg1, Rg3, Rb1, FIG. 46): far superior | nitric oxide (NO) production ([3]; 1 to 10 μg/ml, HUVEC, FIG. 42): increase NO production in a concentration-dependent manner | glucose transport ability (3T1-L1 adipocytes [4]): much superior

Reference: patent US11000537B2, “Composition comprising novel ginsenoside” (AMOREPACIFIC CORPORATION, priority 2018, dated 2021)
